Measured values published in ChEMBL document CHEMBL6121046, “Discovery of Novel Hydrazide-Based HDAC3 Inhibitors as Epigenetic Immunomodulators for Cancer Immunotherapy” (J Med Chem, 2025).
The source made the active and inactive calls. No cut-off for these calls is given here.

Legend:
MC-38 [1] = test: In vivo antitumor activity against mouse MC38 cells allografted in C57BL/6 mouse assessed as apoptosis in tumor at 50 mg/kg, po treated 5 days after cell inoculation 19 th day relative to control; assay type: functional, organism-based; settings: time 15.0 day
Mus musculus [2] = test: (§1) Immunomodulatory effect in C57BL/6 mouse allografted mouse MC38 cells assessed as increase in tumor infiltrating lymphocytes by measuring increase in CD4+ T helper cells in mouse spleen in presence of NP19 PD-L1 inhibitor at 50 mg/kg, po treated 5 days after cell inoculation 19 th day by flow cytometry analysis (reference value: 10.8%); assay type: functional; settings: time 15 day
[3] = Cmax in Sprague-Dawley rat at 20 mg/kg, po measured upto 12 hrs by LC-MS/MS analysis; assay type: ADME, organism-based; settings: in vivo
[4] = Toxicity in C57BL/6 mouse allografted with mouse MC38 cells assessed as pathological changes in lung at 50 mg/kg, po treated 5 days after cell inoculation 19 th day by hematoxylin and eosin analysis; assay type: organism-based; settings: in vivo, 360 h, time 15 day
[5] = Toxicity in C57BL/6 mouse allografted with mouse MC38 cells assessed as alanine amino transferase (ALT) level in serum at 50 mg/kg, po treated 5 days after cell inoculation 19 th day; assay type: organism-based; settings: in vivo, 360 h, time 15 day
MC-38 [6] = test: Induction of mitochondrial membrane damage in mouse MC38 cells assessed as decrease in JC-1 aggregation by measuring red fluorescence at 2 uM measured after 48 hrs (reference value: 96.70%); assay type: functional; set-up: scale not given: the % may be the effect or the level left
MC-38 [7] = test: Induction of ROS production in mouse MC38 cells assessed as increase in intracellular ROS level measured after 48 hrs by flow cytometry; assay type: functional, cell-based
MC-38 [8] = test: In vivo antitumor activity against MC38 cells allografted in C57BL/6 mouse assessed as tumor growth inhibition in presence of NP19 PD-L1 inhibitor at 50 mg/kg, po treated 5 days after cell inoculation 19 th day relative to control; assay type: functional; settings: MC-38, 360 h, time 15 day, read-out: TGI
[9] = Toxicity in C57BL/6 mouse allografted with mouse MC38 cells assessed as pathological changes in heart at 50 mg/kg, po treated 5 days after cell inoculation 19 th day by hematoxylin and eosin analysis; assay type: organism-based; settings: in vivo, 360 h, time 15 day
Mus musculus [10] = test: as §1, with “blood” for “spleen”, “0.27%)” for “10.8%)”; assay type: functional; settings: time 15 day
[11] = Half life in Sprague-Dawley rat at 20 mg/kg, iv measured upto 12 hrs by LC-MS/MS analysis; assay type: ADME, organism-based; settings: in vivo
Mus musculus [12] = test: as §1, with “lymph nodes” for “spleen”, “15.5%)” for “10.8%)”; assay type: functional; settings: time 15 day
MC-38 [13] = test: Induction of mitochondrial membrane damage in mouse MC38 cells assessed as decrease in JC-1 aggregation by measuring red fluorescence at 1 uM measured after 48 hrs (reference value: 96.70%); assay type: functional; set-up: scale not given: the % may be the effect or the level left
Mus musculus [14] = test: as §1, with “lymph nodes” for “spleen in presence of NP19 PD-L1 inhibitor”, “15.5%)” for “10.8%)”; assay type: functional; settings: time 15 day
Mus musculus [15] = test: Immunomodulatory effect in C57BL/6 mouse allografted mouse MC38 cells assessed as increase in tumor infiltrating lymphocytes by measuring increase in CD4+ T helper cells in mouse blood at 50 mg/kg, po treated 5 days after cell inoculation 19 th day by flow cytometry analysis (reference value: 0.27%); assay type: functional; settings: time 15 day
[16] = Volume of distribution at steady state in Sprague-Dawley rat at 20 mg/kg, po measured upto 12 hrs by LC-MS/MS analysis; assay type: ADME, organism-based; settings: in vivo
MC-38 [17] = test: Induction of PD-L1 expression in mouse MC38 cells in presence of JQ-1 BRD4 inhibitor at 2 uM measured after 24 hrs incubation by Western blot analysis; assay type: functional, cell-based
MC-38 [18] = test: Induction of mitochondrial membrane damage in mouse MC38 cells assessed as decrease in JC-1 aggregation by measuring red fluorescence at 4 uM measured after 48 hrs (reference value: 96.70%); assay type: functional; set-up: scale not given: the % may be the effect or the level left
[19] = Toxicity in C57BL/6 mouse allografted with mouse MC38 cells assessed as alkaline phosphatase (AKP) level in serum at 50 mg/kg, po treated 5 days after cell inoculation 19 th day; assay type: organism-based; settings: in vivo, 360 h, time 15 day
[20] = MRT (0 to t) in Sprague-Dawley rat at 20 mg/kg, iv measured upto 12 hrs by LC-MS/MS analysis; assay type: ADME, organism-based; settings: in vivo
MC-38 [21] = test: In vivo antitumor activity against mouse MC38 cells allografted in C57BL/6 mouse assessed as decrease in […] positive cells in tumor at 50 mg/kg, po treated 5 days after cell inoculation 19 th day by immunofluorescence analysis; assay type: functional, organism-based; settings: time 15.0 day
[22] = AUC (0 to infinity) in Sprague-Dawley rat at 20 mg/kg, po measured upto 12 hrs by LC-MS/MS analysis; assay type: ADME, organism-based; settings: in vivo
Mus musculus [23] = test: as §1, with “tumor” for “mouse spleen”, “2.57%)” for “10.8%)”; assay type: functional; settings: time 15 day
[24] = Toxicity in C57BL/6 mouse allografted with mouse MC38 cells assessed as body weight loss in presence of NP19 PD-L1 inhibitor at 50 mg/kg, po treated 5 days after cell inoculation 19 th day; assay type: organism-based; settings: in vivo, 360 h, time 15 day
[25] = Toxicity in C57BL/6 mouse allografted with mouse MC38 cells assessed as creatinine (CRE) level in serum at 50 mg/kg, po treated 5 days after cell inoculation 19 th day; assay type: organism-based; settings: in vivo, 360 h, time 15 day
[26] = Toxicity in C57BL/6 mouse allografted with mouse MC38 cells assessed as body weight loss at 50 mg/kg, po treated 5 days after cell inoculation 19 th day; assay type: organism-based; settings: in vivo, 360 h, time 15 day
Mus musculus [27] = test: Immunomodulatory effect in C57BL/6 mouse allografted mouse MC38 cells assessed as increase in tumor infiltrating lymphocytes by measuring increase in CD4+ T helper cells in tumor at 50 mg/kg, po treated 5 days after cell inoculation 19 th day by flow cytometry analysis (reference value: 2.57%); assay type: functional; settings: time 15 day
Mus musculus [28] = test: Immunomodulatory effect in C57BL/6 mouse allografted mouse MC38 cells assessed as increase in tumor infiltrating lymphocytes by measuring increase in CD8+ T […] cells in tumor at 50 mg/kg, po treated 5 days after cell inoculation 19 th day by flow cytometry analysis (reference value: 2.32%); assay type: functional; settings: time 15 day
MC-38 [29] = test: Induction of mitochondrial membrane damage in mouse MC38 cells assessed as increase in JC-1 monomers by measuring green fluorescence at 1 uM measured after 48 hrs (reference value: 3.13%); assay type: functional
MC-38 [30] = test: Induction of mitochondrial membrane damage in mouse MC38 cells assessed as decrease in JC-1 aggregation by measuring red fluorescence at 8 uM measured after 48 hrs (reference value: 96.70%); assay type: functional; set-up: scale not given: the % may be the effect or the level left
Mus musculus [31] = test: Induction of acetylated H3 level in tumor in C57BL/6 mouse allografted with mouse MC38 cells in presence of NP19 PD-L1 inhibitor at 50 mg/kg, po treated 5 days after cell inoculation 19 th day by immunofluorescence analysis; assay type: functional, organism-based; settings: time 15.0 day
Mus musculus [32] = test: Immunomodulatory effect in C57BL/6 mouse allografted with mouse MC38 cells assessed as increase in tumor infiltrating lymphocytes by measuring increase in CD3+ CD4+ cells in presence of NP19 PD-L1 inhibitor at 50 mg/kg, po treated 5 days after cell inoculation 19 th day by flow cytometry analysis; assay type: functional, organism-based; settings: time 15.0 day

CCCNNC(=O)c1ccc(CNC(=O)c2cnc(-c3ccc4occc4c3)[nH]2)cc1
Activity (MC-38 [1]): Active
Activity (Mus musculus [2]): 11.9%
Cmax [3]: 0.347 µg/mL
Activity [4]: Non-toxic
Activity [5]: Non-toxic
Activity (MC-38 [6]): 91.43%
Activity (MC-38 [7]): Dose-dependent-effect
inhibition in vivo at 50 mg/kg (MC-38 [8]): 80%
Activity [9]: Non-toxic
Activity (Mus musculus [10]): 0.98%
half-life [11]: 1 h
Activity (Mus musculus [12]): 20%
Activity (MC-38 [13]): 93.57%
Activity (Mus musculus [14]): 20.3%
Activity (Mus musculus [15]): 0.84%
Vdss [16]: 72.81 L/kg
Activity (MC-38 [17]): Active
Activity (MC-38 [18]): 72.13%
Activity [19]: Non-toxic
MRT last at 12 h [20]: 1.19 h
Activity (MC-38 [21]): Active
AUC [22]: 1.4298 µg·h/mL
Activity (Mus musculus [23]): 3.11%
Activity [24]: Non-toxic
Activity [25]: Non-toxic
Activity [26]: Non-toxic
Activity (Mus musculus [27]): 1.72%
Activity (Mus musculus [28]): 5.29%
Activity (MC-38 [29]): 6.34%
Activity (MC-38 [30]): 71.37%
Activity (Mus musculus [31]): Active
Activity (Mus musculus [32]): Active
